Experimental data published in the Kinase Knowledgebase extract (Sharma et al. 2016).
pIC50: −log10 of the molar value. Where “and” joins values, the source holds several entries; their conditions need not be identical. Identical values can stand only once.

Tests used:
PIK3CA (human) = PIK3CA (human) (UniProt P42336); assay: Inhibition of PIK3CA Kinase Activity
[1] = molecular target: PIK3CA (human), P42336 [Antiproliferation of PI3K Mutated BT20 Cells]; assay: Cell-Based Assay
Chain of PIK3CA (human), P42336 [Antiproliferation of PI3K Mutated BT20 Cells] (P42336 whole entry, looked up, change not shown): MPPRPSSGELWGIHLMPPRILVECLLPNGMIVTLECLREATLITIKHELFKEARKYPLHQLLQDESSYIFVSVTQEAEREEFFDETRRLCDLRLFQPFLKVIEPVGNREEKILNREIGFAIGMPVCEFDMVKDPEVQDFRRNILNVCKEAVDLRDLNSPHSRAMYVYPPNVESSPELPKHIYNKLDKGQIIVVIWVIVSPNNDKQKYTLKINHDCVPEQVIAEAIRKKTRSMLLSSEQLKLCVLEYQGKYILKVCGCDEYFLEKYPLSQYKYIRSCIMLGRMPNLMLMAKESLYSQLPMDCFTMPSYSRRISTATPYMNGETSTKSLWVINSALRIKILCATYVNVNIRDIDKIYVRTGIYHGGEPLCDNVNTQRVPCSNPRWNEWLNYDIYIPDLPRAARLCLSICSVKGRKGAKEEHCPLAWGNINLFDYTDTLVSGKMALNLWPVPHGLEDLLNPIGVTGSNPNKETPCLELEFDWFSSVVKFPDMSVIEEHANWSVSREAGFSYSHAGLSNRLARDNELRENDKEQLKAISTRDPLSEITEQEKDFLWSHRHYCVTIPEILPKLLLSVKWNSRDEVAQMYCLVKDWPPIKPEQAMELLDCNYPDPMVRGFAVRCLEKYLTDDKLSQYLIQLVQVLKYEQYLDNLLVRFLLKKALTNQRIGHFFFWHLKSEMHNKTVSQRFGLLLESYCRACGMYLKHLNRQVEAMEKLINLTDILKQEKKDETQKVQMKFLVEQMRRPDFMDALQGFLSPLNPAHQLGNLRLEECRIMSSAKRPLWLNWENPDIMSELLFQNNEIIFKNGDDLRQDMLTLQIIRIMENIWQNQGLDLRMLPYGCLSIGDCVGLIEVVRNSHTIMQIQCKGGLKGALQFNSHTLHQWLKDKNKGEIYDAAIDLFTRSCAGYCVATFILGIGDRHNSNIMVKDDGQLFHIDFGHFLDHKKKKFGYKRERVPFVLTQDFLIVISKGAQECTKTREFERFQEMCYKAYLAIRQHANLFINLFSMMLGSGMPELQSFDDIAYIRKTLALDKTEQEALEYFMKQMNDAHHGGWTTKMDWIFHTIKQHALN

Chain of PIK3CA (human) (P42336 whole entry, looked up): as the sequence (P42336 whole entry, looked up, change not shown) above

| Compound | pIC50 (PIK3CA (human)) | pIC50 [1] |
| --- | --- | --- |
| CNc1nc(C)c2cc(C(=O)Nc3ccon3)c(=O)n(C3CCCC3)c2n1 | 8.30 | 7.14 |
| CNc1nc(C)c2cc(-c3cnc4[nH]ccc4c3)c(=O)n(CC3CCOC3)c2n1 (centres undefined) | 8.80 | 7.87 |
| CNc1nc(C)c2cc(-c3cccnc3OC)c(=O)n(C3CCCC3)c2n1 | 6.56 | 5.45 |
| COc1ccc(-c2cc3c(C)nc(N)nc3n([C@H]3CC[C@H](OC[C@@H](O)CO)CC3)c2=O)cn1 | 8.17 | 7.88 |
| Cc1nc(N)nc2c1cc(-c1cnn(C)c1)c(=O)n2[C@H]1CC[C@H](OCCO)CC1 | 7.65 | 6.65 |
| CNc1nc(C)c2cc(-c3ccc(OC)nc3)c(=O)n(CCC3CC3)c2n1 | 8.05 | 7.38 |
| CNc1nc(C)c2cc(-c3ccc(OC)nc3)c(=O)n(C3CCC3)c2n1 | 8.20 | 7.23 |
| COc1ccc(-c2cc3c(C)nc(NCC(F)F)nc3n([C@H]3CC[C@H](O)CC3)c2=O)cn1 | 7.92 | 7.33 |
| Cc1nc(N)nc2c1cc(-c1cnc3ccccc3c1)c(=O)n2[C@H]1CC[C@H](O)CC1 | 8.09 | 7.38 |
| CCOc1ccc(-c2cc3c(C)nc(N)nc3n([C@H]3CC[C@H](O)CC3)c2=O)cn1 | 8.57 | 7.67 |
| CO[C@H]1CC[C@H](n2c(=O)c(-c3cc[nH]n3)cc3c(C)nc(N)nc32)CC1 | 8.02 | 7.76 |
| COc1ccc(-c2cc3c(C)nc(N)nc3n(C3CCC(=O)CC3)c2=O)cn1 | 8.37 | 7.71 |
| CCNc1nc(C)c2cc(-c3cccc(OC)c3)c(=O)n(C3CCCC3)c2n1 | 6.10 | 5.86 |
| Cc1nc(N)nc2c1cc(Br)c(=O)n2[C@H]1CC[C@@H](O)CC1 | 6.89 | 6.64 |
| COc1ccc(-c2cc3c(C)nc(N)nc3n([C@H]3C[C@H](OCC(N)=O)C3)c2=O)cn1 | 8.33 | 7.47 |
| Cc1nc(N)nc2c1cc(C#N)c(=O)n2C1CCC1 | 7.02 | 5.68 |
| CNc1nc(C)c2cc(-c3cccc(O)c3)c(=O)n(C3CCCC3)c2n1 | 9.14 | 8.75 |
| CNc1nc(C)c2cc(-c3ccc(OC)nc3)c(=O)n(C(C)C)c2n1 | 6.96 and 7.68 | 7.02 |
| CCNc1nc(C)c2cc(CCC(=O)OCC)c(=O)n(C3CCCC3)c2n1 | 5.26 | 5.00 |
| COc1ncc(-c2cc3c(C)nc(N)nc3n([C@H]3C[C@H](OCC(N)=O)C3)c2=O)cc1F | 8.67 | 7.90 |
| Cc1nc(N)nc2c1cc(-c1cccnc1N)c(=O)n2C1CCCC1 | 5.84 | 5.05 |

| Compound | pIC50 (PIK3CA (human)) | pIC50 [1] |
| --- | --- | --- |
| COc1ccc(-c2cc3c(C)nc(N)nc3n(C3CCN(C(C)=O)C3)c2=O)cn1 (centres undefined) | 8.15 | 6.90 |
| Cc1nc(N)nc2c1cc(-c1cccc(CO)c1)c(=O)n2C1CCCC1 | 8.51 | 7.69 |
| Cc1nc(N)nc2c1cc(-c1cccc(Cl)n1)c(=O)n2C1CCCC1 | 6.77 | 5.46 |
| CCNc1nc(C)c2cc(CCCO)c(=O)n(C3CCCC3)c2n1 | 8.40 | 5.56 |
| Cc1nc(N)nc2c1cc(-c1cnc3[nH]ccc3c1)c(=O)n2[C@H]1CC[C@H](O)CC1 | 8.89 | 7.50 |
| CNc1nc(C)c2cc(-c3cn[nH]c3)c(=O)n(C3CCCC3)c2n1 | 8.10 | 8.59 |
| CCNc1nc(C)c2cc(-c3ccc(O)c(OC)c3)c(=O)n(C3CCCC3)c2n1 | 8.51 | 7.58 |
| COc1ncc(-c2cc3c(C)nc(N)nc3n(C(C)C)c2=O)cn1 | 8.66 | 7.31 |
| CNc1nc(C)c2cc(-c3cccc(OC)c3)c(=O)n(C3CCCC3)c2n1 | 6.61 | 6.17 |
| C#Cc1cc2c(C)nc(N)nc2n(C2CCC2)c1=O | 6.96 | 6.18 |
| COc1ccc(-c2cc3c(C)nc(N)nc3n(C3CN(C(=O)OC(C)(C)C)C3)c2=O)cn1 | 7.54 | 6.50 |
| Cc1nc(N)nc2c1cc(-c1cnc3[nH]ccc3c1)c(=O)n2CC1CCCO1 (centres undefined) | 8.27 | 7.44 |
| Cc1nc(N)nc2c1cc(-c1cnc3[nH]ccc3c1)c(=O)n2C(C)C | 8.64 | 8.17 |
| CCNc1nc(C)c2cc(-c3cnc(OC)nc3)c(=O)n([C@H]3CC[C@H](O)CC3)c2n1 | 8.80 | 7.69 |
| CCNc1nc(C)c2cc(-c3cccnc3N)c(=O)n(C3CCCC3)c2n1 | 5.47 | 5.10 |
| CNc1nc(C)c2cc(-c3ncccc3F)c(=O)n(C3CCCC3)c2n1 | 5.68 | 5.08 |
| COc1ccc(-c2cc3c(C)nc(N)nc3n([C@H]3C[C@H](OCCO)C3)c2=O)cn1 | 7.99 | 7.29 |
| Cc1cc(-c2cc3c(C)nc(N)nc3n(C3CCCC3)c2=O)cnc1N(C)C | 7.96 | 7.64 |
| CNc1nc(C)c2cc(-c3ccc(OC)nc3)c(=O)[nH]c2n1 | 6.34 | 5.56 |
| CNc1nc(C)c2cc(-c3ccc(Cl)nc3)c(=O)n(C3CCCC3)c2n1 | 7.53 | 6.84 |
| Cc1nc(N)nc2c1cc(-c1ccc(N(C)C)nc1)c(=O)n2[C@H]1CC[C@H](OCCO)CC1 | 8.03 | 7.92 |

| Compound | pIC50 (PIK3CA (human)) | pIC50 [1] |
| --- | --- | --- |
| CO[C@H]1CC[C@H](n2c(=O)c(-c3ccc(N(C)C)nc3)cc3c(C)nc(N)nc32)CC1 | 8.21 | 8.00 |
| Cc1nc(N)nc2c1cc(Br)c(=O)n2C1CCOC1 (centres undefined) | 6.64 | 5.78 |
| COc1ccc(-c2cc3c(C)nc(N)nc3n(C3CCN(C(=O)OC(C)(C)C)C3)c2=O)cn1 (centres undefined) | 7.57 | 6.76 |
| COc1ccc(-c2cc3c(C)nc(N)nc3n(CCC3CC3)c2=O)cn1 | 7.96 | 7.03 |
| Cc1nc(N)nc2c1cc(-c1cccc(CO)c1)c(=O)n2C1CCOCC1 | 8.41 | 7.48 |
| COc1ncc(-c2cc3c(C)nc(N)nc3n([C@H]3CC[C@@H](OCCO)CC3)c2=O)cn1 | 8.27 | 7.82 |
| Cc1nc(N)nc2c1cc(-c1cnc3[nH]ccc3c1)c(=O)n2[C@@H]1CC[C@@H](O)C1 | 8.92 | 7.25 |
| Cc1nc(N)nc2c1cc(Br)c(=O)n2[C@H]1CC[C@H](OCCO)CC1 | 7.26 | 7.02 |
| Cc1nc(N)nc2c1cc(-c1cnn(C)c1)c(=O)n2[C@H]1CC[C@H](O)CC1 | 7.74 | 6.32 |
| Cc1nc(N)nc2c1cc(-c1cnn(CC(F)F)c1)c(=O)n2C1CCCC1 | 7.92 | 6.40 |
| Cc1nc(N)nc2c1cc(-c1ccc(F)cc1)c(=O)n2CC(C)(C)O | 5.47 | 5.00 |
| Cc1nc(N)nc2c1cc(Br)c(=O)n2CC1CCCO1 (centres undefined) | 7.00 | 5.67 |
| COc1ncc(-c2cc3c(C)nc(N)nc3n([C@H]3C[C@H](OCCO)C3)c2=O)cc1F | 8.51 | 7.84 |
| COc1ncccc1-c1cc2c(C)nc(N)nc2n(C2CCCC2)c1=O | 6.07 | 5.26 |
| Cc1nc(N)nc2c1cc(-c1c[nH]nn1)c(=O)n2C(C)C | 7.21 | 6.25 |
| Cc1nc(N)nc2c1cc(-c1cncc(N)n1)c(=O)n2C1CCCC1 | 7.70 | 7.47 |
| COc1ccc(-c2cc3c(C)nc(N)nc3n(CC(F)(F)F)c2=O)cn1 | 6.89 | 6.58 |
| Cc1nc(N)nc2c1cc(Br)c(=O)n2CC(C)(C)O | 6.17 | 5.63 |
| Cc1nc(N)nc2c1cc(-c1cn[nH]c1)c(=O)n2CC(F)(F)F | 6.73 | 6.63 |
| Cc1nc(N)nc2c1cc(-c1ccc(OC(C)C)nc1)c(=O)n2[C@H]1CC[C@H](O)CC1 | 8.03 | 7.14 |
| Cc1nc(N)nc2c1cc(-c1ccc(N3CCCC3)nc1)c(=O)n2[C@H]1CC[C@H](O)CC1 | 7.72 | 8.31 |

| Compound | pIC50 (PIK3CA (human)) | pIC50 [1] |
| --- | --- | --- |
| Cc1nc(N)nc2c1cc(C(=O)Nc1ccn[nH]1)c(=O)n2[C@H]1CC[C@H](O)CC1 | 9.23 | 7.55 |
| CCNc1nc(C)c2cc(CCC(=O)O)c(=O)n(C3CCCC3)c2n1 | 7.27 | 5.00 |
| CNc1nc(C)c2cc(-c3cnn(CCO)c3)c(=O)n(C3CCCC3)c2n1 | 7.62 | 6.63 |
| COc1ncc(-c2cc3c(C)nc(N)nc3n([C@H]3CC[C@H](OCCO)CC3)c2=O)cn1 | 8.66 | 7.41 |
| Cc1nc(N)nc2c1cc(-c1cnc3[nH]ccc3c1)c(=O)n2C1CN(C(=O)OC(C)(C)C)C1 | 7.42 | 6.59 |
| CCNc1nc(C)c2cc(-c3cnc(OC)c(F)c3)c(=O)n([C@H]3CC[C@H](O)CC3)c2n1 | 9.10 | 8.29 |
| Cc1nc(N)nc2c1cc(-c1cccc(O)c1)c(=O)n2C1CCCC1 | 9.28 | 8.32 |
| Cc1nc(N)nc2c1cc(-c1ccc(Cl)nc1)c(=O)n2C1CCCC1 | 7.41 | 7.13 |
| COc1ccc(-c2cc3c(C)nc(N)nc3n(CC3CCOCC3)c2=O)cn1 | 7.82 | 7.05 |
| CCNc1nc(C)c2cc(-c3cccc(O)c3)c(=O)n(C3CCCC3)c2n1 | 9.00 | 8.52 |
| COc1ccc(-c2cc3c(C)nc(N)nc3n(CC3CCCO3)c2=O)cn1 (centres undefined) | 7.68 | 6.92 |
| Cc1nc(N)nc2c1cc(-c1cnn(C)c1)c(=O)n2C1CCCC1 | 7.49 | 6.21 |
| CNc1nc(C)c2cc(/C=C/O)c(=O)n(C3CCCC3)c2n1 | 7.38 | 6.05 |
| Cc1nc(N)nc2c1cc(-c1cn[nH]c1)c(=O)n2C1CN(C(=O)OC(C)(C)C)C1 | 6.92 | 7.38 |
| Cc1nc(N)nc2c1cc(-c1cnn(CCO)c1)c(=O)n2C1CCCC1 | 7.35 | 6.31 |
| COc1ncc(-c2cc3c(C)nc(N)nc3n([C@H]3C[C@H](OCC(N)=O)C3)c2=O)cn1 | 8.23 | 6.96 |
| Cc1nc(N)nc2c1cc(-c1cnc(O)nc1)c(=O)n2C(C)C | 6.52 | 5.60 |
| CCn1nccc1NC(=O)c1cc2c(C)nc(N)nc2n([C@H]2CC[C@H](O)CC2)c1=O | 8.89 | 7.30 |
| COc1ccc(-c2cc3c(C)nc(N)nc3n(CC3(F)CCOCC3)c2=O)cn1 | 7.74 | 6.50 |
